This is an account of results in US6069232A, “Polyfluoroalkyl tryptophan tripeptide thrombin inhibitors” (Hoechst Marion Roussel, Inc., priority 1996, dated 2000).

In one experiment the target is T1, Thrombin (Homo sapiens, UniProt P00734).
T1 construct: Thrombin is obtained from human plasma; purchased Sigma Chemical Co; host or cells: human plasma
Put plainly: Thrombin inhibition, spectrophotometric assay (p-nitroaniline liberation). The class given is biochemical. To be noted: thrombin from human plasma; substrate Sarcosyl-Proline-Arginine-p-nitroanilide; 0.1M Tris pH 7.4; 30° C. The procedure: Chem., 329, p. 278 (1962), in which the liberation of p-nitroaniline is determined by measuring the increase in absorbance at 405 nm (ε=10800M^-1 cm^-1). Thrombin is obtained from human plasma, available from Sigma Chemical Co. wherein the activity is expressed in NIH units. One vial contains 290 units (specific activity=3000 units per mg of protein) as a lyophilized powder which is reconstituted with 1 mL of water. The substrate is the chromophoric peptide, Sarcosyl-Proline-Arginine-p-nitroanilide (Km =0.9 mM), the buffer is 0.1M Tris, pH 7.4 (final volume 1 mL) and the assay is carried out at a temperature of about 30° C. with 0.029 NIH units of enzyme required per assay. Kinetic characterization of immediate inhibitors is by means of the Dixon plot, whereas the characterization of slow- and/or tight-binding inhibitors uses data analysis techniques reviewed by Williams and Morrison. Kinetic characterization of time dependent inhibitors is by means of a Kitz & Wilson plot, Kitz R. and Wilson I. B., J. Biol. Chem., 237, 3245-3249 (1962).

A further experiment concerns the target T2, Trypsin (Sus scrofa, UniProt P00761).
T2 construct: Trypsin is obtained from porcine pancreas; purchased Sigma Chemical Co; host or cells: porcine pancreas
Kind of experiment: Trypsin inhibition, spectrophotometric assay (p-nitroaniline liberation). The class given is biochemical. To be noted: trypsin from porcine pancreas; substrate Benzoyl-Arginine-p-nitroanilide; 0.05M Tris, 0.05M CaCl2, pH 7.8; 30° C. The procedure: Chem., 329, p. 278 (1962), immediately described above. Trypsin is obtained from porcine pancreas, available from Sigma Chemical Co. wherein the activity is expressed in Sigma units. The specific activity of the trypsin source is 15900 Sigma units per mg of protein where one unit is defined as the amount of enzyme that gives an increase in absorbance at 253 nm of 0.001 per min as the result of the hydrolysis of Benzoyl-Arginine-Ethylester, at pH 7.6 and 25° C. The substrate is the peptide Benzoyl-Arginine-p-nitroanilide (KM =[…]), the buffer is 0.05M Tris, 0.05M CaCl2, pH 7.8 (final volume 1 mL) and the assay is carried out at a temperature of 30° C. with 8 Sigma units of enzyme required per assay. Kinetic characterization of immediate inhibitors is by means of the Dixon plot, whereas the characterization of slow- and/or tight-binding inhibitors uses data analysis techniques reviewed by Williams and Morrison. Kinetic characterization of time dependent inhibitors is by means of a Kitz & Wilson plot.

The test system of the next experiment is clotting time (aPTT). Kind of experiment: Coagulation assay: activated partial thromboplastin time (aPTT), concentration doubling the clotting time. More on the design: species or system rat. To be noted: calculated by simple linear regression. The method, then: Male Sprague-Dawley rats (200-450 gm) purchased from Harlan Sprague Dawley, Inc., (Indianapolis, Ind. 46229) were used in these studies.
Activated partial thromboplastin time (aPTT) determinations are carried out using the reagents and methods of Dade Diagnostics, Inc. (Aguada, Puerto Rico 00602). All clotting times were measured semiautomatically using a MLA-Electra 750, MLA, Inc. (Pleasantville, N.Y. 10570). The concentration required for doubling the clotting time (ID2) was calculated using simple linear regression.

The test system of the next experiment is aPTT in rat plasma. Put plainly: In vivo measurement of aPTT in rat plasma after injection. To be noted: n = 2. From the text: Activated partial thromboplastin time (aPTT) measurements were made in rat plasma at various times after injecting the animals with TFA·HNMe-D-Phe-L-Pro-D,L-Trp--CF2 CF3. Male Sprague-Dawley rats (200-450 g) purchased from Harlan Sprague Dawley, Inc., (Indianapolis, Ind. 46229) are used in these studies. […]

T2 sequence (P00761 9-231): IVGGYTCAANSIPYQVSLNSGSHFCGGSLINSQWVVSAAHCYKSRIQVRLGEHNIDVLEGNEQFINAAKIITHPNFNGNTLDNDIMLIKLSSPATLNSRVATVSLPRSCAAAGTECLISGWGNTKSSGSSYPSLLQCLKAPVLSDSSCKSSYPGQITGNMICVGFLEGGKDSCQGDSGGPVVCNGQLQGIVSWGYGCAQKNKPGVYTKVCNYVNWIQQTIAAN

The Ki is the dissociation constant of the complex between target and ligand, obtained from inhibition or displacement. Regarding `CN[C@H](Cc1ccccc1)C(=O)N1CCC[C@H]1C(=O)NC(Cc1c[nH]c2ccccc12)C(=O)C(F)(F)C(F)(F)F.O=C(O)C(F)(F)F` (stereo partly drawn) [TFA.HNMe-D-Phe-L-Pro-D,L-Trp-CF2 CF3, L-Prolinamide, N-methyl-D-phenylalanyl-N-[3,3,4,4,4-pentafluoro-1-(1H-indol-3-ylmethyl)-2-oxobutyl]-, mono(trifluoroacetate)], the Ki at Thrombin was 0.45 µM; on Trypsin, about 100 µM. Further, the “ID2 (concentration required for doubling the clotting time)” value in the experiment with clotting time (aPTT) was 44.9 µM. Also, the aPTT with aPTT in rat plasma (5 mg/kg i.v., 0 min. after dosing) came out at 21.2 s; with aPTT in rat plasma (5 mg/kg i.v., 5 min. after dosing), 19.0 s; in the experiment on aPTT in rat plasma (5 mg/kg i.v., 15 min. after dosing), 22.7 s; in the experiment on aPTT in rat plasma (5 mg/kg i.v., 30 min. after dosing) it was 18.6 s; with aPTT in rat plasma (5 mg/kg i.v., 60 min. after dosing), 17.6 s; with aPTT in rat plasma (10 mg/kg i.v., 0 min. after dosing) it was 18.8 s. In addition, the aPTT in the experiment on aPTT in rat plasma (10 mg/kg i.v., 5 min. after dosing) came to 17.4 s; in the experiment on aPTT in rat plasma (10 mg/kg i.v., 15 min. after dosing) it was 18.0 s; in the experiment with aPTT in rat plasma (10 mg/kg i.v., 30 min. after dosing), 15.7 s; with aPTT in rat plasma (10 mg/kg i.v., 60 min. after dosing), 12.6 s; in the experiment with aPTT in rat plasma (30 mg/kg i.p., 0 min. after dosing), 19.2 s; in the experiment on aPTT in rat plasma (30 mg/kg i.p., 5 min. after dosing), 20.8 s. In addition, the aPTT with aPTT in rat plasma (30 mg/kg i.p., 15 min. after dosing) worked out at 19.2 s; in the experiment on aPTT in rat plasma (30 mg/kg i.p., 30 min. after dosing), 19.4 s; in the experiment with aPTT in rat plasma (30 mg/kg i.p., 60 min. after dosing), 18.7 s.
